35 compounds from US7612113B2, “Hydroxy tetrahydro-naphthalenylurea derivatives” (Xention Limited, priority 2002, dated 2009) can be followed below.

As a reminder, the melting point is the temperature, or range, at which the solid turns liquid.

Where two headings read alike, the source gives them in different places.

The target in one series is T1, human VR1 (Homo sapiens, UniProt Q8NER1).
T1 construct: expressed in transfected cells
Nature of the series: capsaicin-induced Ca2+ influx in the human VR1-transfected CHO cell line (Assay 1). The series is classed as cell-based. The conditions noted are these: 10 nM capsaicin, human VR1-CHOluc9aeq cells. The text has this: [Measurement of capsaicin-induced Ca^2+ influx in the human VR1-transfected CHO cell line] (Assay 1)
• (1) Establishment of the Human VR1-CHOluc9aeq Cell Line • Human vanilloid receptor (hVR1) cDNA was cloned from libraries of axotomized dorsal root ganglia (WO 00/29577). The cloned hVR1 cDNA was constructed with pcDNA3 vector and transfected into a CHOluc9aeq cell line. The cell line contains aequorin and CRE-luciferase reporter genes as read-out signals. The transfectants were cloned by limiting dilution in selection medium (DMEM/F12 medium (Gibco BRL) supplemented with 10% FCS, 1.4 mM Sodium pyruvate, 20 mM HEPES, 0.15% Sodium bicarbonate, 100 U/ml penicillin, 100 μg/ml streptomycin, 2 mM glutamine, non-essential amino acids and 2 mg/ml G418). Ca^2+ influx was examined in the capsaicin-stimulated clones. A high responder clone was selected and used for further experiments in the project. The human VR1-CHOluc9aeq cells were maintained in the selection medium and passaged every 3-4 days at 1-2.5×10^5 cells/flask ([…]). • (2) Measurement of Ca^2+ Influx Using FDSS-3000 • Human VR1-CHOluc9aeq cells were suspended in a culture medium which is the same as the selection medium except for G418 and seeded at a density of 1,000 cells per well into 384-well plates (black walled clear-base/Nalge Nunc International). Following the culture for 48 hrs the medium was changed to 2 μM Fluo-3 AM (Molecular Probes) and 0.02% Puronic F-127 in assay buffer (Hank's balanced salt solution (HBSS), 17 mM HEPES (pH7.4), 1 mM Probenecid, 0.1% BSA) and the cells were incubated for 60 min at. 25° C. After washing twice with assay buffer the cells were incubated with a test compound or vehicle for 20 min at 25° C. Mobilization of cytoplasmic Ca^2+ was measured by FDSS-3000 (λex=488 nm, λem=540 nm/Hamamatsu Photonics) for 60 sec after the stimulation with 10 nM capsaicin. Integral R was calculated and compared with controls. [Measurement of the Capsaicin-Induced Ca^2+ Influx in Primary Cultured Rat Dorsal Root Ganglia Neurons] (Assay 2) • (1) Preparation of Rat Dorsal Root Ganglia Neurons • New born Wister rats (5-11 days) were sacrificed and dorsal root ganglia (DRG) was removed. DRG was incubated with 0.1% trypsin (Gibco BRL) in PBS(−) (Gibco BRL) for 30 min at 37° C., then a half volume of fetal calf serum (FCS) was added and the cells were spun down. The DRG neuron cells were resuspended in Ham F12/5% FCS/5% horse serum (Gibco BRL) and dispersed by repeated pipetting and passing through 70 μm mesh Falcon). The culture plate was incubated for 3 hours at 37° C. to remove contaminating Schwann cells. Non-adherent cells were recovered and further cultured in laminin-coated 384 well plates (Nunc) at 1×10^4 cells/50 μl/well for 2 days in the presence of 50 ng/ml recombinant rat NGF (Sigma) and 50 μM 5-fluorodeoxyuridine (Sigma). • (2) Ca^2+ Mobilization Assay • DRG neuron cells were washed twice with HBSS supplemented with 17 mM HEPES (pH 7.4) and 0.1% BSA. After incubating with 2 μM fluo-3AM (Molecular Probe), 0.02% PF127 (Gibco BRL) and 1 mM probenecid (Sigma) for 40 min at 37° C., cells were washed 3 times. The cells were incubated with VR1 antagonists or vehicle (dimethylsulphoxide) and then with 1 μM capsaicin in FDSS-6000 (λex=480 nm, λem=520 nm/Hamamatsu Photonics). The fluorescence changes at 480 nm were monitored for 2.5 min. Integral R was calculated and compared with controls. [Organ Bath Assay to Measure the Capsaicin-Induced Bladder Contraction] (Assay 3)
The data corresponds to the compounds as yielded by solid phase synthesis and thus to levels of purity of about 40 to 90%. For practical reasons, the compounds are grouped in four classes of activity as follows: IC50=A(<or=)0.1 μM<B(<or=)0.5 μM<C(<or=)1 μM<D

Where [1] appears, read: Table 1, read-out: activity class.
The mark [2] stands for this setting: Table 3, read-out: activity class.
Setting [3] is: read-out: In vitro activity class.

T1 sequence (Q8NER1 whole entry): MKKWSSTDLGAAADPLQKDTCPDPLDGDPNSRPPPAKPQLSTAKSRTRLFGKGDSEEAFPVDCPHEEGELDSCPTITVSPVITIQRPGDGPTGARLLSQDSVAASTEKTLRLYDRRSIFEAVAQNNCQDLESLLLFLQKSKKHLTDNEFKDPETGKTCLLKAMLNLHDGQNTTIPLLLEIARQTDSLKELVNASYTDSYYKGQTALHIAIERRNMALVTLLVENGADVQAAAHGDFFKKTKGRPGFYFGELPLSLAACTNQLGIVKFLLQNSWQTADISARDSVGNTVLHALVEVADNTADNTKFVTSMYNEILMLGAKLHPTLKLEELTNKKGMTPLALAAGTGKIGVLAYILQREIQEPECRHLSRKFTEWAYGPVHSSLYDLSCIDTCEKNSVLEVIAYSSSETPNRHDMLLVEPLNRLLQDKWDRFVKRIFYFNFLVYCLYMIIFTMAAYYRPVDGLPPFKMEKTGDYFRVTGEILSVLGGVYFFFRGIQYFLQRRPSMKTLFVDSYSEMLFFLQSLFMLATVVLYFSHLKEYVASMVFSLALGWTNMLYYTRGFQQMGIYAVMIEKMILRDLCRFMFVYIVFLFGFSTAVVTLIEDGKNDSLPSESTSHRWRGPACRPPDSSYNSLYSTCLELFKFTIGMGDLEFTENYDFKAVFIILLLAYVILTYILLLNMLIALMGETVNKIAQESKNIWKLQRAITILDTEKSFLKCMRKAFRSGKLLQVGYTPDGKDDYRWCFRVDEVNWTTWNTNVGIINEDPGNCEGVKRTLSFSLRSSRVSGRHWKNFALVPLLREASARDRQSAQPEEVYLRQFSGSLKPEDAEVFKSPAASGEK

Turning to `O=C(Nc1ccc(C(F)(F)F)cc1)Nc1cccc2c1CC(O)CC2` (stereo not shown) [Example 2-9], the melting point fell in the range of 222 to 224 °C. For the same compound, on human VR1 (setting [1]), the IC50 was under 100 nM.
Compound `O=C(Nc1ccc2ccccc2c1)Nc1cccc2c1CC(O)CC2` (stereo not shown) [Example 2-14] showed a melting point of 212 to 214 °C. In addition, on human VR1 (setting [1]), the IC50 was under 100 nM.
`O=C(Nc1cccc(Oc2ccccc2)c1)Nc1cccc2c1CC(O)CC2` (stereo not shown) [Example 5-10] displayed a melting point of 194 to 195 °C. On human VR1 (setting [2]), the IC50 was under 100 nM.
With `CCOC(=O)c1ccccc1NC(=O)Nc1cccc2c1CC(O)CC2` (stereo not shown) [Example 2-10], the melting point was 178 to 180 °C. For the same compound, the IC50 at human VR1 (setting [1]) was over 1000 nM.
`O=C(Nc1cccc(I)c1)Nc1cccc2c1CC(O)CC2` (stereo not shown) [Example 5-13] registered a melting point of 226 to 228 °C. The IC50 on human VR1 (setting [2]) was under 100 nM.
Consider `CC1(O)CCc2cccc(NC(=O)Nc3ccc(Cl)c(C(F)(F)F)c3)c2C1` (stereo not shown) [Example 2-41], for which the melting point worked out at 213 °C. For the same compound, at human VR1 (setting [1]), the IC50 was in the range of 100 to 500 nM.
The like results for `O=C(NCc1ccc(F)cc1)Nc1cccc2c1CC(O)CC2` (stereo not shown) [Example 2-29] were, in that order, 218 to 221 °C and under 100 nM.
For `O=C(NCc1cccc(F)c1)Nc1cccc2c1CC(O)CC2` (stereo not shown) [Example 2-28] the same measures were 193 to 194 °C and 100 to 500 nM.
The like results for `Cc1cccc(CNC(=O)Nc2cccc3c2CC(O)CC3)c1` (stereo not shown) [Example 2-24] were, in that order, 194 to 196 °C and 100 to 500 nM.
As for `O=C(NCc1ccccc1Cl)Nc1cccc2c1CC(O)CC2` (stereo not shown) [Example 2-30], the melting point lay within 213 to 215 °C. Besides, on human VR1 (setting [1]), the IC50 fell in the range of 100 to 500 nM.
On to `O=C(Nc1cccc(OC(F)(F)F)c1)Nc1cccc2c1CC(O)CC2` (stereo not shown) [Example 5-11], for which the melting point fell in the range of 203 to 204 °C. Further, the IC50 on human VR1 (setting [2]) is under 100 nM.
For `O=C(NCCc1ccccc1)Nc1cccc2c1CC(O)CC2` (stereo not shown) [Example 2-32], the melting point fell in the range of 161 to 163 °C. The IC50 on human VR1 (setting [1]) lay in the range of 500 to 1000 nM.
For `CN(C(=O)Nc1ccc(Cl)c(C(F)(F)F)c1)c1cccc2c1CC(O)CC2` (stereo not shown) [Example 2-40], the melting point is 136 to 137 °C. For the same compound, the IC50 at human VR1 (setting [1]) lay in the range of 100 to 500 nM.
On to `O=C(Nc1cccc(F)c1)Nc1cccc2c1CC(O)CC2` (stereo not shown) [Example 5-3], for which the melting point was in the range of 204 to 205 °C. In addition, the IC50 at human VR1 (setting [2]) lay in the range of 100 to 500 nM.
Regarding `CN(C)c1ccc(NC(=O)Nc2cccc3c2CC(O)CC3)cc1` (stereo not shown) [Example 2-21], the melting point was in the range of 206 to 207 °C. Moreover, the IC50 at human VR1 (setting [1]) was over 1000 nM.
For `O=C(Nc1cccc(Cl)c1)Nc1cccc2c1CC(O)CC2` (stereo not shown) [Example 2-3] the same measures were 216 to 218 °C and under 100 nM.
`O=C(NCc1ccc(C(F)(F)F)cc1)Nc1cccc2c1C[C@H](O)CC2` [Example 4-4, N-{(R)-7-hydroxy-5,6,7,8-tetrahydro-naphthalen-1-yl}-N′-(4-trifluoromethyl-benzyl)-urea] registered a melting point of 204.3 °C. For the same compound, the IC50 at human VR1 (setting [3]) was under 100 nM.
Regarding `COc1cccc(NC(=O)Nc2cccc3c2CC(O)CC3)c1` (stereo not shown) [Example 2-5], the melting point is 187 to 189 °C. In addition, the IC50 at human VR1 (setting [1]) lay in the range of 100 to 500 nM.
For `COc1ccc(NC(=O)Nc2cccc3c2CC(O)CC3)cc1` (stereo not shown) [Example 2-6] the same measures were 213 to 215 °C and over 1000 nM.
Compound `CCNC(=O)Nc1cccc2c1CC(O)CC2` (stereo not shown) [Example 2-33] had a melting point of 216 to 217 °C. The IC50 at human VR1 (setting [1]) was over 1000 nM.
The like results for `O=C(Nc1cccc2c1CC(O)CC2)Nc1cccc2ccccc12` (stereo not shown) [Example 2-13] were, in that order, 250 to 252 °C and under 100 nM.
`Cc1cccc(NC(=O)Nc2cccc3c2CC(O)CC3)c1` (stereo not shown) [Example 2-18] came in with a melting point of 198 to 200 °C. For the same compound, the IC50 on human VR1 (setting [1]) lay within 100 to 500 nM.
In turn, `Cc1ccccc1NC(=O)Nc1cccc2c1CC(O)CC2` (stereo not shown) [Example 5-6] registered a melting point of 223 °C. The IC50 on human VR1 (setting [2]) lay in the range of 500 to 1000 nM.
In turn, `O=C(Nc1ccc(Br)cc1)Nc1cccc2c1CC(O)CC2` (stereo not shown) [Example 2-16] yielded a melting point of 237 to 239 °C. Moreover, the IC50 at human VR1 (setting [1]) was under 100 nM.
On to `O=C(Nc1ccc(OC(F)(F)F)cc1)Nc1cccc2c1CC(O)CC2` (stereo not shown) [Example 5-1, N-(7-hydroxy-5,6,7,8-tetrahydro-naphthalen-1-yl)-N′-(4-trifluoromethoxy-phenyl)-urea], for which the melting point fell in the range of 198 to 200 °C. Besides, the IC50 on human VR1 (setting [3]) is under 100 nM.
The compound `Cc1ccccc1CNC(=O)Nc1cccc2c1CC(O)CC2` (stereo not shown) [Example 2-23] gave a melting point of 224 to 226 °C. On human VR1 (setting [1]), the IC50 was in the range of 100 to 500 nM.
For `O=C(Nc1ccccc1Cl)Nc1cccc2c1CC(O)CC2` (stereo not shown) [Example 2-2] the same measures were 197 to 199 °C and 100 to 500 nM.
In turn, `O=C(Nc1ccc(Cl)c(Cl)c1)Nc1cccc2c1CC(O)CC2` (stereo not shown) [Example 2-17] returned a melting point of 234 to 235 °C. On human VR1 (setting [1]), the IC50 is under 100 nM.
As to `COc1ccc(CNC(=O)Nc2cccc3c2CC(O)CC3)cc1` (stereo not shown) [Example 2-31], the melting point fell in the range of 209 to 211 °C. In addition, the IC50 on human VR1 (setting [1]) was 100 to 500 nM.
The like results for `Cc1ccc(CNC(=O)Nc2cccc3c2CC(O)CC3)cc1` (stereo not shown) [Example 2-26] were, in that order, 230 to 232 °C and under 100 nM.
The like results for `O=C(Nc1ccc(Cl)cc1)Nc1cccc2c1CC(O)CC2` (stereo not shown) [Example 2-4] were, in that order, 229 to 231 °C and under 100 nM.
In turn, `O=C(NCc1ccccc1)Nc1cccc2c1CC(O)CC2` (stereo not shown) [Example 2-22] returned a melting point of 198 to 200 °C. On human VR1 (setting [1]), the IC50 lay within 100 to 500 nM.
The like results for `Cc1ccc(NC(=O)Nc2ccc(Cl)c(C(F)(F)F)c2)c2c1CCC(O)C2` (stereo not shown) [Example 2-39] were, in that order, 219 to 220 °C and under 100 nM.
`O=C(Nc1ccccc1)Nc1cccc2c1CC(O)CC2` (stereo not shown) [Example 2-34] returned a melting point of 198 to 199 °C. Besides, the IC50 at human VR1 (setting [1]) was 500 to 1000 nM.
For `O=C(Nc1ccc(F)cc1)Nc1cccc2c1CC(O)CC2` (stereo not shown) [Example 2-15] the same measures were 214 to 216 °C and 100 to 500 nM.
